For orientation: EC50 means the concentration giving half of the maximal effect.

Molecules are shown by their SMILES. Read-outs that look alike come from different tables or passages of the source. Bounds are passed on as bounds.

Data on 28 compounds can be found in patent publication US9693997B2, “Antiviral compounds” (priority 2013, dated 2017).

Assay [1] concerns pseudotyped VSV G particles (VSVpp) in Huh7-high CD81 cells. As to the kind of experiment: microbe, parasite or virus in culture. The assay is classed as cell-based, vesicular stomatitis virus.
In assay [2] the test system is Pseudotyped HCV GT1b particles (HCVpp), entry into Huh7-high CD81 cells. As to the kind of experiment: microbe, parasite or virus in culture. Type of assay: cell-based, HCV GT1b Con1 strain.
Where [3] appears, read: Vesicular stomatitis virus, 72 h, read-out: VSVpp (EC50, μM).
Setting [4] is: Hepatitis C virus, GT1B, 72 h, read-out: HCVpp GT-1b (EC50, μM).

For `CS(=O)(=O)c1ccc(-c2c(F)cc(Nc3nc(N)n[nH]3)cc2C(F)(F)F)cc1` [Compound 70, N^5-(2-Fluoro-4′-(methylsulfonyl)-6-trifluoromethylbiphenyl-4-yl)-1H-[1,2,4]-triazole-3,5-diamine], the figures for the 50% effective concentration (EC50) in assay [1] (setting [3]) and in assay [2] (setting [4]) were 5.15 µM and 0.064 µM, respectively.

Consider `Nc1nc(Nc2cc(Cl)c(-c3ccc(NC(=O)CN4CCOCC4)cc3)c(C(F)(F)F)c2)n[nH]1` [Compound 241, [4′-(5-amino-1H-[1,2,4]triazol-3-ylamino)-2′-chloro-6′-trifluoromethyl-biphenyl-4-yl]-2-morpholin-4-yl-acetamide], for which the EC50 in assay [1] (setting [3]) is more than 10 µM; in assay [2] (setting [4]) it was 0.123 µM.

On to `Nc1nc(Nc2cc(Cl)c(-c3ccc(NC(=O)C4CCOCC4)cc3)c(Cl)c2)n[nH]1` [Compound 82, Tetrahydropyran-4-carboxylic acid-(4′-(5-amino-1H-[1,2,4]triazol-3-ylamino)-2′,6′-dichlorobiphenyl-4-yl)-amide], for which the values for the EC50 in assay [1] (setting [3]) and in assay [2] (setting [4]) were more than 10 µM and 0.39 µM, respectively.

Turning to `CC(C)(C)NC(=O)c1ccc(-c2c(Cl)cc(Nc3n[nH]c(N)n3)cc2Cl)cc1` [Compound 8, 4′-(5-Amino-1H-[1,2,4]triazol-3-ylamino)-2′,6′-dichloro-biphenyl-4-carboxylic acid tert-butylamide], the EC50 is more than 10 µM in assay [1] (setting [3]) and 0.013 µM in assay [2] (setting [4]).

Consider `CC(C)N1CC(C)(NS(=O)(=O)c2ccc(-c3c(Cl)cc(Nc4n[nH]c(N)n4)cc3C(F)(F)F)cc2)C1` [Compound 211, 4′-(5-amino-1H-1,2,4-triazol-3-ylamino)-2′-chloro-N-(1-isopropyl-3-methylazetidin-3-yl)-6′-(trifluoromethyl)biphenyl-4-sulfonamide; compound with trifluoro-acetic acid], for which the EC50 in assay [1] (read-out: VSVpp (EC50)) came out at 3.65 µM; in assay [2] (read-out: HCVpp GT-1b (EC50)), 0.012 µM.

Turning to `Nc1nc(Nc2cc(Cl)c(-c3ccc(S(=O)(=O)NC4CC4)cc3)c(C(F)(F)F)c2)n[nH]1` [Compound 169, 4′-(5-amino-1H-1,2,4-triazol-3-ylamino)-2′-chloro-N-cyclopropyl-6′-(trifluoromethyl)biphenyl-4-sulfonamide], the EC50 came out at 3.55 µM in assay [1] (setting [3]) and 0.011 µM in assay [2] (setting [4]).

Consider `Nc1nc(Nc2cc(Cl)c(-c3ccc(S(=O)(=O)N[C@H]4C[C@@H](O)C4)cc3)c(C(F)(F)F)c2)n[nH]1` [Compound 174, 4′-(5-amino-1H-1,2,4-triazol-3-ylamino)-2′-chloro-N-(cis-3-hydroxycyclobutyl)-6′-(trifluoromethyl)biphenyl-4-sulfonamide], for which the EC50 in assay [1] (setting [3]) was more than 10 µM; in assay [2] (setting [4]), 0.038 µM.

Consider `CC(C)S(=O)(=O)c1ccc(-c2c(F)cc(Nc3nc(N)n[nH]3)cc2C(F)(F)F)cc1` [Compound 71, N^5-[6-Fluoro-4′-(propane-2-sulfonyl)-2-trifluoromethyl-biphenyl-4-yl]-1H-[1,2,4]-triazole-3,5-diamine], for which the EC50 in assay [1] (setting [3]) is more than 10 µM; in assay [2] (setting [4]) it was 0.153 µM.

As to `CC(C)(C)OC(=O)N1CCN(S(=O)(=O)c2ccc(-c3c(Cl)cc(Nc4n[nH]c(N)n4)cc3C(F)(F)F)cc2)CC1` [Compound 16, 4-[4′-(5-Amino-1H-[1,2,4]triazol-3-ylamino)-2′-chloro-6′-trifluoromethyl-biphenyl-4-sulfonyl]-piperazine-1-carboxylic acid tert-butyl ester], the values for the EC50 in assay [1] (setting [3]) and in assay [2] (setting [4]) were more than 10 µM and 0.03 µM, respectively.

For `COc1cc(-c2c(Cl)cc(Nc3n[nH]c(N)n3)cc2C(F)(F)F)ccc1S(=O)(=O)NC1CCN(C(=O)OC(C)(C)C)CC1` [Compound 163, tert-butyl 4-(4′-(5-amino-1H-1,2,4-triazol-3-ylamino)-2′-chloro-3-methoxy-6′-(trifluoromethyl)biphenyl-4-ylsulfonamido)piperidine-1-carboxylate], the 50% effective concentration (EC50) in assay [1] (setting [3]) is more than 10 µM; in assay [2] (setting [4]), 0.005 µM.

For `CC(C)(C)OC(=O)N1CCN(S(=O)(=O)c2ccc(-c3c(Cl)cc(Nc4n[nH]c(N)n4)cc3C(F)(F)F)cc2)C2(CC2)C1` [Compound 208, tert-butyl 4-(4′-(5-amino-1H-1,2,4-triazol-3-ylamino)-2′-chloro-6′-(trifluoromethyl)biphenyl-4-ylsulfonyl)-4,7-diazaspiro[2.5]octane-7-carboxylate], the values for the 50% effective concentration (EC50) in assay [1] (setting [3]) and in assay [2] (setting [4]) were more than 10 µM and 0.049 µM, respectively.

On to `CS(=O)(=O)Nc1cccc(-c2c(F)cc(Nc3nc(N)n[nH]3)cc2C(F)(F)F)c1` [Compound 243, N-[4′-(5-Amino-2H-[1,2,4]-triazol-3-ylamino)-6′-fluoro-2′-trifluoromethyl-biphenyl-3-yl]-methanesulfonamide], for which the concentration giving a half-maximal response (EC50) in assay [1] (setting [3]) is more than 10 µM; in assay [2] (setting [4]), 0.213 µM.

As for `COc1ccc(-c2c(Cl)cc(Nc3n[nH]c(N)n3)cc2C(F)(F)F)cc1S(=O)(=O)NC1(C#N)CC1` [Compound 225], the values for the EC50 in assay [1] (setting [3]) and in assay [2] (setting [4]) were more than 10 µM and 0.031 µM, respectively.

Regarding `Nc1nc(Nc2cc(Cl)c(-c3cccc(Cl)c3Cl)c(Cl)c2)n[nH]1` [Compound 109, N-3-(2,6,2′,3′-Tetrachloro-biphenyl-4-yl)-1H-[1,2,4]triazole-3,5-diamine], the concentration for a half-maximal effect (EC50) in assay [1] (setting [3]) is 46.5 µM; in assay [2] (setting [4]), 0.74 µM.

For `Nc1n[nH]c(Nc2cc(F)c(-c3ccc(F)cc3)c(C(F)(F)F)c2)n1` [Compound 245, N^5-[6,4′-Difluoro-2-trifluoromethylbiphenyl-4-yl]-1H-[1,2,4]-triazole-3,5-diamine], the results for the concentration giving a half-maximal response (EC50) in assay [1] (setting [3]) and in assay [2] (setting [4]) were 17.1 µM and 1.47 µM, respectively.

On to `Nc1nc(Nc2cc(Cl)c(-c3ccc(S(=O)(=O)NC4CC(O)C4)cc3)c(C(F)(F)F)c2)n[nH]1` (centres unmarked) [Compound 172, 4′-(5-amino-1H-1,2,4-triazol-3-ylamino)-2′-chloro-N-(3-hydroxycyclobutyl)-6′-(trifluoromethyl)biphenyl-4-sulfonamide], for which the EC50 in assay [1] (setting [3]) was determined as 45.1 µM; in assay [2] (setting [4]), 0.032 µM.

In the case of `N#Cc1ccc(-c2c(F)cc(Nc3nc(N)n[nH]3)cc2C(F)(F)F)cc1` [Compound 79, 4′-(5-Amino-2H-[1,2,4]-triazol-3-ylamino)-6′-fluoro-2′-trifluoromethyl-biphenyl-4-carbonitrile], the EC50 in assay [1] (setting [3]) was determined as 8.11 µM; in assay [2] (setting [4]), 0.483 µM.

`COc1ccc(-c2c(Cl)cc(Nc3n[nH]c(N)n3)cc2C(F)(F)F)cc1S(=O)(=O)NC(C)(C)C` [Compound 216, 4′-(5-Amino-1H-[1,2,4]triazol-3-ylamino)-6′-chloro-4-methoxy-2′-trifluoromethyl-biphenyl-3-sulfonic acid tert-butylamide]: the concentration for a half-maximal effect (EC50) stood at 6.48 µM in assay [1] (setting [3]) and 0.004 µM in assay [2] (setting [4]).

Take `Nc1nc(Nc2cc(Cl)c(-c3ccc(S(=O)(=O)N4CCS(=O)(=O)CC4)cc3)c(C(F)(F)F)c2)n[nH]1` [Compound 45, N*3*-[2-Chloro-4′-(1,1-dioxo-1lambda*6*-thiomorpholine-4-sulfonyl)-6-trifluoromethyl-biphenyl-4-yl]-1H-[1,2,4]triazole-3,5-diamine]: the EC50 in assay [1] (setting [3]) was more than 10 µM; in assay [2] (setting [4]), 0.101 µM.

As for `Nc1nc(Nc2cc(Cl)c(-c3ccc(S(=O)(=O)N4CCC(F)(F)CC4)cc3)c(C(F)(F)F)c2)n[nH]1` [Compound 183, N3-(2-chloro-4′-(4,4-difluoropiperidin-1-ylsulfonyl)-6-(trifluoromethyl)biphenyl-4-yl)-1H-1,2,4-triazole-3,5-diamine], the results for the half-maximal effective concentration (EC50) in assay [1] (setting [3]) and in assay [2] (setting [4]) were 8.19 µM and 0.048 µM, respectively.

With `Nc1nc(Nc2cc(Cl)c(-c3ccc([N+](=O)[O-])cc3)c(Cl)c2)n[nH]1` [Compound 83], the EC50 in assay [1] (setting [3]) was found to be 4.34 µM; in assay [2] (setting [4]), 0.532 µM.

For `Nc1nc(Nc2ccc(-c3ccccc3)c(C(F)(F)F)c2)n[nH]1` [Compound 149, N*3*-(2-Trifluoromethyl-biphenyl-4-yl)-1H-[1,2,4]triazole-3,5-diamine], the EC50 in assay [1] (setting [3]) was found to be 29.2 µM; in assay [2] (setting [4]) it was 0.581 µM.

As for `CNC(=O)c1ccc(-c2c(Cl)cc(Nc3n[nH]c(N)n3)cc2C(F)(F)F)cc1` [Compound 189, 4′-(5-amino-1H-1,2,4-triazol-3-ylamino)-2′-chloro-N-methyl-6′-(trifluoromethyl)biphenyl-4-carboxamide], the EC50 in assay [1] (setting [3]) is 36.8 µM; in assay [2] (setting [4]), 0.08 µM.

Regarding `CS(=O)(=O)c1cccc(-c2c(Cl)cc(Nc3n[nH]c(N)n3)cc2C(F)(F)F)c1` [Compound 195, N3-(2-chloro-3′-(methylsulfonyl)-6-(trifluoromethyl)biphenyl-4-yl)-1H-1,2,4-triazole-3,5-diamine], the figures for the EC50 in assay [1] (setting [3]) and in assay [2] (setting [4]) were 39.7 µM and 0.212 µM, respectively.

Take `Nc1nc(Nc2cc(Cl)c(-c3cccc(S(=O)(=O)N4CCCC4)c3)c(C(F)(F)F)c2)n[nH]1` [Compound 192, N3-(2-chloro-3′-(pyrrolidin-1-ylsulfonyl)-6-(trifluoromethyl)biphenyl-4-yl)-1H-1,2,4-triazole-3,5-diamine]: the EC50 in assay [1] (setting [3]) turned out to be 17.2 µM; in assay [2] (setting [4]) it was 0.084 µM.

Regarding `COc1cc(-c2c(Cl)cc(Nc3n[nH]c(N)n3)cc2C(F)(F)F)ccc1S(=O)(=O)N[C@H]1CC[C@H](O)CC1` [Compound 167, 4′-(5-amino-1H-1,2,4-triazol-3-ylamino)-2′-chloro-N-(trans-4-hydroxycyclohexyl)-3-methoxy-6′-(trifluoromethyl)biphenyl-4-sulfonamide], the EC50 in assay [1] (setting [3]) is more than 10 µM; in assay [2] (setting [4]), 0.009 µM.

Take `Nc1nc(Nc2cc(Cl)c(-c3ccc(Cl)cc3Cl)c(Cl)c2)n[nH]1` [Compound 124, N-3-(2,6,2′,4′-Tetrachloro-biphenyl-4-yl)-1H-[1,2,4]triazole-3,5-diamine]: the figures for the EC50 in assay [1] (setting [3]) and in assay [2] (setting [4]) were 4.49 µM and 1.01 µM, respectively.

Consider `Nc1nc(Nc2cc(Cl)c(-c3ccc(OCC(=O)O)cc3)c(Cl)c2)n[nH]1` [Compound 285, [4′-(5-Amino-1H-[1,2,4]triazol-3-ylamino)-2′,6′-dichloro-biphenyl-4-yloxy]-acetic acid], for which the 50% effective concentration (EC50) in assay [1] (setting [3]) was more than 10 µM; in assay [2] (setting [4]), 4.97 µM.
